According to patent US8974823B2, “Solid compositions of low-solubility drugs and poloxamers” (Bend Research, Inc., priority 2003, dated 2015):
In brackets after ≈: the same amount, converted by molar mass.

How the values were obtained:
[1] = aqueous solubility of the drug; conditions: aqueous solution
[2] = drugs of prior-art compositions, background section; cited from earlier work
[3] = in vivo test of oral powder for constitution in fasted male beagle dogs (plasma Drug 4); conditions: dog, oral gavage OPC
Procedure: The composition of Example 16 was used as oral powders for constitution (OPC) for evaluating the performance of the compositions in in vivo tests using male beagle dogs. The OPC was dosed as a suspension in a solution containing 0.5 wt % […] METHOCEL® (from Dow Chemical Co.), and was prepared as follows. First, 7.5 g of METHOCEL® was weighed out and added slowly to approximately 490 mL of water at 90-100° C. to form a METHOCEL® suspension. After all the METHOCELS® was added, 1000 mL of cool/room temperature water was added to the suspension, which was then placed in an ice water bath. When all of the METHOCEL® had dissolved, 2.55 g of polyoxyethylene 20 sorbitan monooleate (TWEEN 80) were added and the mixture stirred until the TWEEN 80 had dissolved, thus forming a stock suspension solution.
To form the OPC, sufficient quantity of the test composition to result in a 90 mgA amount of Drug 4 was weighed and placed into a mortar. (“mgA” refers to mg of active drug.) A 20 mL quantity of the stock suspension solution was added to the mortar and the test composition was mixed with a pestle. […]
Six male beagle dogs were each dosed with the OPC. […] Whole blood samples were taken from the jugular vein and analyzed for the concentration of Drug 4 using the following procedure. […]

Molecule `Cc1c(O)cccc1C(=O)N[C@@H](CSc1ccccc1)[C@H](O)CN1C[C@H]2CCCC[C@H]2C[C@H]1C(=O)NC(C)(C)C` [Drug 3, N-(1,1-dimethylethyl) decahydro-2-[(2R,3R)-2-hydroxy-3-[(3-hydroxy-2-methylbenzoyl)amino]-4-(phenylthio)butyl]-3-isoquinolinecarboxamide (3s, 4aS, 8aS)-monomethanesulfonate] has a solubility [1] of roughly 6 µg/mL (≈ 10.6 µM).
In the case of `COc1ccccc1OCCNCC(O)COc1cccc2[nH]c3ccccc3c12` (stereo not shown) [carvedilol], the “glass transition temperature (Tg)” value [2] is given as “about 39 °C”.
Molecule `CCOC(=O)N1c2ccc(C(F)(F)F)cc2[C@@H](N(Cc2cc(C(F)(F)F)cc(C(F)(F)F)c2)C(=O)OC)C[C@H]1CC` [Control C7, Torcetrapib] has a Cmax ([3]; 90 mgA Drug 4) of less than 100 ng/mL and an AUC(0-t) ([3]; 90 mgA Drug 4, read-out: AUC(0–24)) of less than 200 ng·h/mL.
